# Columns and labels:
# [1] = system: human breast cancer cells having steroid hormone receptor; assay: Antitumor test (in vivo), human breast cancer cells implanted in BALB/C-nu/nu mice; details: tumors excised day 25
# Protocol: Pieces of human breast cancer cells having steroid hormone receptor was subcutaneously implanted under the arm of mice (BALB/C-nu/nu) (5 week age) to form solid tumors. After the solid tumors were established, each dispersion or solution of the active ingredient in olive oil was administered by oral dose or intraperitoneal injection each other day for 10 times or every days for 20 times. Twenty five days from the initial administration, the tumors were excised. Efficiency of inhibition of tumor proliferation was measured from (A) each average weight of excised tumors for 10 mice (the active ingredient was administrated) and (B) each average weight of excised tumors for 10 control mice. [formula]
# (§1) The tests (1), (2), (3) for various active ingredients were carried out.
# [2] = Acute toxicity (LD50), ICR-JCL female mice, Litchfield-Wilcoxon graph method; details: mouse, in vivo, one dose, in olive oil, after 7 days
# Protocol: In the measurement of LD50, eight ICR-JCL female mice (5 week age) were used as one group to breed in a transparent polycage, and each drug was dissolved in olive oil and administrated by routes of intraperitoneal injection (i.p.), oral administration (p.o.) and subcutaneous injection (s.c.), to the mice at one dose and then, their value of LD50 by Litchfield-Wilcoxon graph method is obtained after 7 days.
# as §1
SMILES,"Inhibitory effect of tumor, efficiency ([1]; i.p., 3 mg/kg) [%]","Inhibitory effect of tumor, efficiency ([1]; i.p., 10 mg/kg) [%]","Inhibitory effect of tumor, efficiency ([1]; p.o., 10 mg/kg) [%]","Inhibitory effect of tumor, efficiency ([1]; p.o., 40 mg/kg) [%]",LD50 at 168 h ([2]; ip) [mg/kg],LD50 at 168 h ([2]; po) [mg/kg],"Inhibitory effect of tumor, efficiency ([1]; i.p., 1 mg/kg) [%]","Inhibitory effect of tumor, efficiency ([1]; i.p., 50 mg/kg) [%]","Inhibitory effect of tumor, efficiency ([1]; i.p., 20 mg/kg) [%]","Inhibitory effect of tumor, efficiency ([1]; p.o., 15 mg/kg) [%]","Inhibitory effect of tumor, efficiency ([1]; p.o., 30 mg/kg) [%]","Inhibitory effect of tumor, efficiency ([1]; i.p., 15 mg/kg) [%]","Inhibitory effect of tumor, efficiency ([1]; i.p., 30 mg/kg) [%]","Inhibitory effect of tumor, efficiency ([1]; i.p., 5 mg/kg) [%]","Inhibitory effect of tumor, efficiency ([1]; p.o., 50 mg/kg) [%]"
"O=NN(CCCl)C(=O)N[C@H]1C(O)O[C@H](CO)[C@@H](O)[C@@H]1O (stereo partly drawn) [Test No. 1 (Table 18), reference compound]",18,58,13,60,48,210,–,–,–,–,–,–,–,–,–
"C[C@]12CC[C@@H]3c4ccc(O)cc4CC[C@H]3[C@@H]1CC[C@@H]2OC(=O)COC(=O)[C@H]1OC(O)[C@H](NC(=O)N(CCCl)N=O)[C@@H](O)[C@@H]1O (stereo partly drawn) [Test No. 2 (Table 18), 3-hydroxy-1,3,5(10)-estratriene-17β-[2-{N'-(2-chloroethyl)-N'-nitrosoureido}-2-deoxy-D-glucuronoyloxy]acetate]",92,–,73,89,> 180,> 1000,90,–,–,–,–,–,–,–,–
"CN(N=O)C(=O)N[C@H]1C(O)O[C@H](CO)[C@@H](O)[C@@H]1O (stereo partly drawn) [Test No. 5 (Table 18), 2-(N'--methyl-N'--nitrosoureido)-2-deoxy-D-glucopyranoside, reference compound]",–,20,69,86,264,> 1000,–,63,–,–,–,–,–,–,–
"O=c1[nH]cc(F)c(=O)[nH]1 [Test No. 8 (Table 17), 5-fluoro-2,4-dioxo-pyrimidine, reference compound]",–,30,–,–,242,900,–,–,50,30,60,–,–,–,–
"C[C@]12CC[C@@H]3c4ccc(OC(=O)c5ccccc5)cc4CC[C@H]3[C@@H]1CC[C@@H]2OC(=O)Cn1cc(F)c(=O)[nH]c1=O [Test No. 8 (Table 18), 3-benzoyloxy-1,3,5(10)-estratriene-17β-[5-fluoro-2,4-dioxo-pyrimidin-1-yl]acetate]",–,–,–,–,680,> 3000,–,–,–,70,81,83,90,–,–
"CC(=O)Oc1ccc2c(c1)CC[C@@H]1[C@@H]2CC[C@]2(C)[C@@H](OC(=O)Cn3cc(F)c(=O)[nH]c3=O)CC[C@@H]12 [Test No. 9 (Table 18), 3-acetoxy-1,3,5(10)-estratriene-17β-[5-fluoro-2,4-dioxo-pyrimidin-1-yl]acetate]",–,–,–,–,800,> 3000,–,–,–,72,87,84,93,–,–
"CCC(=O)Oc1ccc2c(c1)CC[C@@H]1[C@@H]2CC[C@]2(C)[C@@H](OC(=O)Cn3cc(F)c(=O)[nH]c3=O)CC[C@@H]12 [Test No. 10 (Table 18), 3-propionyloxy-1,3,5(10)-estratriene-17β-[5-fluoro-2,4-dioxo-pyrimidin-1-yl]acetate]",–,–,–,–,740,> 3000,–,–,–,72,83,81,91,–,–
"CN(Cc1cnc2nc(N)nc(N)c2n1)c1ccc(C(=O)N[C@@H](CCC(=O)O)C(=O)O)cc1 [Test No. 12 (Table 18), 4-amino-N^10 --methylpteroyl glutamate, reference compound]",–,–,31,–,94,230,–,–,65,–,–,–,–,48,42
